# Experimental data from US20110152246A1, “NOVEL INHIBITORS OF HEPATITIS C VIRUS REPLICATION” (InterMune, Inc., priority 2009, published 2011).
# System: Huh7 cells containing HCV replicons with an integrated luciferase reporter gene
# Assay: HCV Replicon Assay (luciferase reporter)
# Format: cell-based
# Conditions: Hepatitis C virus, Huh-7, 48 h, read-out: EC50 nM
# Protocol: Huh7 cells containing HCV replicons with an integrated luciferase reporter gene are maintained at 37° C. in 5% CO2 in Dulbecco's modified Eagle's medium (DMEM; Mediatech, Herndon, Va.) containing 10% heat-inactivated fetal bovine serum (FBS; Mediatech, Herndon, Va.), 2 mM L-glutamine (Cambrex Bioscience, Walkersville, Md.), 1% non essential amino acids (Lonza, Walkersville, Md.), 50 IU/mL penicillin (Mediatech, Herndon, Va.), […] streptomycin (Mediatech, Herndon, Va.) and 0.5 mg/mL G418 (Promega, Madison, Wis.). Cells are sub-divided 1:3 or 4 every 2-3 days.
# 24 h prior to the assay, Huh7 cells containing sub-genomic HCV replicons are collected, counted, and plated in Nunclon 96-well tissue culture plates (ThermoFisher, Rochester, N.Y.) at 5000 cells/well in […] standard maintenance medium (above) and incubated in the conditions above. To initiate the assay, culture medium is removed, and replaced with […] maintenance media lacking G418. Test compounds are serially diluted three-fold in dimethyl sulfoxide (DMSO) in two duplicate rows for each EC50 determination. These compound solutions are diluted ten-fold in DMEM lacking serum and G418. […] of these compound solutions in media are added to duplicate tissue culture plates. The final volume is 100 μL with a DMSO concentration of 1%. Compound concentrations are adjusted to appropriately define a dose response curve. Typical dilution series range from […] to 1.69 nM final concentrations to 1 nM to 16.9 fM final. Plates are incubated at 37° C. for approximately 48 hr.
# Following incubation, media is removed from one of the two duplicate plates and replicon-reporter luciferase activity is measured using a Bright-Glo luciferase assay kit (Promega, Madison, Wis.) according to manufacturer's instructions. Semi-log plots of luciferase activity versus the logarithm of compound concentration are fit to a 4-parameter logistic function using XLfit software (IDBS Inc., Guildford, UK) to determine EC50.
row,SMILES,EC50 [nM]
1,COC(=O)N[C@H](C(=O)N1CCC[C@H]1C(=O)Nc1ccc(C(=O)Nc2ccc(NC(=O)[C@@H]3CCCN3C(=O)Cc3ccccc3)cc2)cc1)C(C)C [Compound 104],10 to 100

# Same assay, conditions: Hepatitis C virus, Huh-7; Huh7 HCV replicon cells, luciferase activity, approximately 48 hr incubation; read-out: EC50
row,SMILES,EC50 [nM]
1,COC(=O)N[C@H](C(=O)N1CCC[C@H]1C(=O)Nc1ccc(-c2nc3ccc(NC(=O)[C@@H]4CCCN4C(=O)[C@@H](NC(=O)OC)C(C)C)cc3s2)cc1)C(C)C [Compound 403],< 10
2,COC(=O)N[C@H](C(=O)N1CCC[C@H]1C(=O)Nc1ccc2cc(-c3ccc(NC(=O)[C@@H]4CCCN4C(=O)[C@@H](NC(=O)OC)C(C)C)nc3)ccc2c1)C(C)C [Compound 207],< 10
3,COC(=O)N[C@H](C(=O)N1CCC[C@@]1(C)c1nc(-c2ccc(-c3ccc(-c4c[nH]c([C@]5(C)CCCN5C(=O)[C@@H](NC(=O)OC)C(C)C)n4)c4c3OCO4)cc2)c[nH]1)C(C)C [Compound 328],< 10
4,COC(=O)N[C@H](C(=O)N1CCC[C@H]1c1nc(-c2ccc(-c3ccc4cc(-c5c[nH]c([C@]6(C)CCCN6C(=O)[C@@H](NC(=O)OC)C(C)C)n5)ccc4c3)cc2)c[nH]1)C(C)C [Compound 222],< 10
5,O=C(Nc1ccc2cc(NC(=O)[C@@H]3CCCN3C(=O)Cc3ccccc3)ccc2c1)[C@@H]1CCCN1C(=O)Cc1ccccc1 [Compound 210],> 100
6,O=C(Nc1ccc(NC(=O)[C@@H]2CCCN2C(=O)Cc2ccccc2)cc1)c1ccc(NC(=O)[C@@H]2CCCN2C(=O)Cc2ccccc2)cc1 [Compound 101],10 to 100
